Read-outs that look alike come from different tables or passages of the source.
Key:
[1] = molecular target: T1, recombinant DPP-4 enzyme D4943 (Homo sapiens, UniProt P27487); assay: DPP-4 enzyme inhibitory assay, chromogenic substrate Gly-Pro-pNA, absorbance at 405 nm; format: biochemical; conditions: 37 °C for 30 min, pH = 7.6, dilution range 10^−4 to 10^−11 M
T1 construct: purchased Sigma-Aldrich D4943
Procedure: (§1) The assessment of DPP-4 enzyme inhibitory activities for the synthesised compounds was performed using protocols similar to those previously described in the literature. […] Following a brief incubation period (37 °C for 30 min), absorbance at 405 nm was measured. Initial optimisation of the procedure utilised reference compounds. […] Correspondingly, the analysis of inhibition activity for related enzymes was executed using DPP-8 and DPP-9 inhibition assays, where the compounds were studied in the dilution range 10^−2 to 10^−8 M (Table 2).
(§2) For the in vitro assays, we used the substrate Gly-Pro-p-nitroanilide (H-Gly-Pro pNA HCl, G0513) and recombinant dipeptidyl peptidase-4 enzyme (D4943), which were purchased from Sigma-Aldrich (St. Louis, MO, USA). Samples containing DPP-4 (0.0015 U/well) and varying concentrations of test compounds were incubated with the chromogenic peptide substrate, G0513 (90 µg/well), in a total volume of 100 µL of buffer system (50 mM Tris-HCl, 50 mM NaCl, 0.01% Triton, pH = 7.6). The mixtures were incubated at 37 ◦C for 30 min, and the absorbance at 405 nm was measured using the microplate reader ChemWell (Awareness Technology Inc., Palm City, FL, USA). The DPP-4 inhibitory activities for each test compound were calculated. IC50 values were obtained using GraphPad Prism 8 software. The inhibition activity analysis of the related enzymes was performed using the “Fluorogenic DPP-8 Assay Kit” and “Fluorogenic DPP-9 Assay Kit”, both purchased from BPS Bioscience (San Diego, CA, USA). The dilution range for every compound was 10^−2–10^−8 M.

DPP-8 [2] = molecular target: T2, DPP-8 (Homo sapiens, UniProt Q6V1X1); assay: Fluorogenic DPP-8 Assay Kit inhibition assay; format: biochemical; conditions: for IC50: dilution range 10^−2 to 10^−8 M
T2 construct: purchased BPS Bioscience
Procedure: as §1, §2

DPP-9 [3] = molecular target: T3, DPP-9 (Homo sapiens, UniProt Q86TI2); assay: Fluorogenic DPP-9 Assay Kit inhibition assay; format: biochemical; conditions: for IC50: dilution range 10^−2 to 10^−8 M
T3 construct: purchased BPS Bioscience
Procedure: as §1, §2

[4] = molecular target: T1, recombinant DPP-4 enzyme D4943; parameters: method as in PMID 35337071; conditions: neogliptin reference value; cited from earlier work
DPP-8 [5] = molecular target: T2, DPP-8; parameters: method as in PMID 35337071; conditions: neogliptin reference value; cited from earlier work
DPP-9 [6] = molecular target: T3, DPP-9; parameters: method as in PMID 35337071; conditions: neogliptin reference value; cited from earlier work
[7] = concentration range 10^−3–10^−6 M

T3 sequence (Q86TI2 whole entry): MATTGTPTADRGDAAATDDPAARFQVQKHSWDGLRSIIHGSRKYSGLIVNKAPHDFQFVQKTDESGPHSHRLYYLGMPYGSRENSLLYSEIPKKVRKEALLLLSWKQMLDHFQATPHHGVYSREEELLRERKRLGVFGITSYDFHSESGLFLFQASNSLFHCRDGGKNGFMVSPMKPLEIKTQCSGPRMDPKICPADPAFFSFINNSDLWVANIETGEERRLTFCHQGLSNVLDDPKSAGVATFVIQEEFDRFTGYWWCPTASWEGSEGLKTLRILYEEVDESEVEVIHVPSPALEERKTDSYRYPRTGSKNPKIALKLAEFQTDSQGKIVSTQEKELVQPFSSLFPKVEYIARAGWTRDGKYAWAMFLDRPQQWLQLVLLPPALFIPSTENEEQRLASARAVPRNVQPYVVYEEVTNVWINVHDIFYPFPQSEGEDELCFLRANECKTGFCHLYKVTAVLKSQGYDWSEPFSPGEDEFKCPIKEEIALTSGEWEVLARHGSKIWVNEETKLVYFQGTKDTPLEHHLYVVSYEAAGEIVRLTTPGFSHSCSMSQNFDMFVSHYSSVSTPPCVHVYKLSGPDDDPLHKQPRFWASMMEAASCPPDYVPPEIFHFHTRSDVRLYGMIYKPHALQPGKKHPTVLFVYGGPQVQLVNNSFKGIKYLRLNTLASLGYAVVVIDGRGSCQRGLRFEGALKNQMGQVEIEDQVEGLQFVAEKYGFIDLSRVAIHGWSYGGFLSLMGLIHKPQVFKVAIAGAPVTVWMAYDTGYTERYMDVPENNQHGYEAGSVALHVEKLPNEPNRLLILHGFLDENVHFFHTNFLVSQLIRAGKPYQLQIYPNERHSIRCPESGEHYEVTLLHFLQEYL
T2 sequence (Q6V1X1 whole entry): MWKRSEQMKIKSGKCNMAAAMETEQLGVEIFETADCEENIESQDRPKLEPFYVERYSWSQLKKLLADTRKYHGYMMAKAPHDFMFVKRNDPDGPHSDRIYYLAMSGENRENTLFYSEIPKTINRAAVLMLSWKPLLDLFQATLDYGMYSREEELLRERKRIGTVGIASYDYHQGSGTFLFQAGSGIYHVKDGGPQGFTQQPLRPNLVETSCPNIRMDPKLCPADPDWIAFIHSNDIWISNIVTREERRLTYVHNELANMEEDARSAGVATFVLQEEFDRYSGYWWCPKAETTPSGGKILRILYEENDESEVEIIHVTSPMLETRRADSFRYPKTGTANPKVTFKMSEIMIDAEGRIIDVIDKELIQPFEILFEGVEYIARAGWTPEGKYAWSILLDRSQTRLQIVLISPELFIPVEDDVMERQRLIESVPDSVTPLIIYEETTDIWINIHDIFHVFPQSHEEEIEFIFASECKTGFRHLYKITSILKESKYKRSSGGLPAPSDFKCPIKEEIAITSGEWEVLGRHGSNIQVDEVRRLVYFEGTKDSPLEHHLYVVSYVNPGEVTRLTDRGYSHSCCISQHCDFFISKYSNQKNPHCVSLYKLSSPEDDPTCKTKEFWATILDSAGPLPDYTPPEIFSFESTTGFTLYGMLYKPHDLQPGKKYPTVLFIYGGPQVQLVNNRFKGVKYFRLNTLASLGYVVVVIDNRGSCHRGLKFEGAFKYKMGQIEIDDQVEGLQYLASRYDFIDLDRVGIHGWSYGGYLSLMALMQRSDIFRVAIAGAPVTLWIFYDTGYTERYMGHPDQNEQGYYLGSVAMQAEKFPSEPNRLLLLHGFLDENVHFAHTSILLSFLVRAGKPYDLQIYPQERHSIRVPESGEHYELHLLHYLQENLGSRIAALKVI
T1 sequence (P27487 whole entry): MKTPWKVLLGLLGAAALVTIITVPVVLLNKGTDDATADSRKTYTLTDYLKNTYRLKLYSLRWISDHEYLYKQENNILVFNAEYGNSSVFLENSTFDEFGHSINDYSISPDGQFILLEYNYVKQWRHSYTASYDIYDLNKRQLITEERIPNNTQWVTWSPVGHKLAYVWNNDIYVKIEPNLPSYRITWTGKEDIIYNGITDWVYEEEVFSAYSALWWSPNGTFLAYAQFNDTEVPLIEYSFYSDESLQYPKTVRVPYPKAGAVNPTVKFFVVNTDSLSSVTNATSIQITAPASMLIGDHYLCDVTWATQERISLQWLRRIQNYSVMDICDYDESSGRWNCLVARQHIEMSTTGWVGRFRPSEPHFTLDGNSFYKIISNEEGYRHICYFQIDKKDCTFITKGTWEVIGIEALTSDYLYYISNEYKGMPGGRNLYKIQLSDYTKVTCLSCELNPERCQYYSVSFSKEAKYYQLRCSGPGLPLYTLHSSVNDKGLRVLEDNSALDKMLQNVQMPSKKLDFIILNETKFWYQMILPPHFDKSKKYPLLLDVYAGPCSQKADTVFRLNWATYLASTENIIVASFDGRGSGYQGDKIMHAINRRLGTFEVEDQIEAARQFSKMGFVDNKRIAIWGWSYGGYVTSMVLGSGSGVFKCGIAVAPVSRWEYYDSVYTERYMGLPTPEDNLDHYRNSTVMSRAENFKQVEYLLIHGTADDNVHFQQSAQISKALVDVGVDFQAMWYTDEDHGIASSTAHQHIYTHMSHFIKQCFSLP

Structure (SMILES) | IC50 [1] [nM] | IC50 (DPP-8 [2]) [nM] | IC50 (DPP-9 [3]) [nM] | DPP-8 inhibitory activity (in words) (DPP-8 [2]; [7]) | DPP-9 inhibitory activity (in words) (DPP-9 [3]; [7]) | IC50 [4] [nM] | IC50 (DPP-8 [5]) [nM] | IC50 (DPP-9 [6]) [nM]
N[C@@H](CC(=O)N1C2CCC(C2)[C@H]1c1noc(-c2ccccc2)n1)Cc1cc(F)c(F)cc1F (stereo partly drawn) [3a, (3R)-3-Amino-1-[(3S)-3-(5-phenyl-1,2,4-oxadiazol-3-yl)-2-azabicyclo [2.2.1]heptan-2-yl]-4-(2,4,5-trifluorophenyl)butan-1-one] | 21.6 | > 1000 | > 1000 | – | – | – | – | –
N[C@@H](CC(=O)N1C2CCC(C2)[C@@H]1c1noc(-c2ccccc2)n1)Cc1cc(F)c(F)cc1F (stereo partly drawn) [3b, (3R)-3-Amino-1-[(3R)-3-(5-phenyl-1,2,4-oxadiazol-3-yl)-2-azabicyclo[2.2.1]heptan-2-yl]-4-(2,4,5-trifluorophenyl)butan-1-one] | > 1000 | > 1000 | > 1000 | – | – | – | – | –
N[C@@H](CC(=O)N1C2CCC(C2)[C@H]1c1nc(-c2ccccc2)no1)Cc1cc(F)c(F)cc1F (stereo partly drawn) [9a, (3R)-3-Amino-1-[(3S)-3-(3-phenyl-1,2,4-oxadiazol-5-yl)-2-azabicyclo[2.2.1]heptan-2-yl]-4-(2,4,5-trifluorophenyl)butan-1-one] | 4.3 | > 1000 | > 1000 | did not mediate any substantial inhibition | did not mediate any substantial inhibition | – | – | –
N[C@@H](CC(=O)N1C2CCC(C2)[C@@H]1c1nc(-c2ccccc2)no1)Cc1cc(F)c(F)cc1F (stereo partly drawn) [9b, (3R)-3-Amino-1-[(3R)-3-(3-phenyl-1,2,4-oxadiazol-5-yl)-2-azabicyclo[2.2.1]heptan-2-yl]-4-(2,4,5-trifluorophenyl)butan-1-one] | > 1000 | > 1000 | > 1000 | – | – | – | – | –
N#CC1C2CCC(C2)N1C(=O)CC(N)Cc1cc(F)c(F)cc1F (centres unmarked) [Neogliptin, neogliptin] | – | – | – | – | – | 16.8 | > 1000 | > 1000
